Entries after “also recorded” stand apart in the source; their conditions may differ.
Legend:
D2 receptors = D2 receptors (Homo sapiens, UniProt P14416); settings: cited from earlier work
H1 receptors = H1 receptors (Homo sapiens, UniProt P35367); settings: cited from earlier work
D1 receptors = D1 receptors (Homo sapiens, UniProt P21728); settings: cited from earlier work
mACh receptors = settings: cited from earlier work
opioid binding sites = settings: cited from earlier work
[1] = system: pain associated with fibromyalgia; assay: Combinatorial therapy of milnacipran and VRNT or virtual reality distraction therapy for fibromyalgia; type: in vivo, patient
Text: In an exemplary embodiment, a combinatorial therapeutic system for treating fibromyalgia includes a serotonin-norepinephrine reuptake inhibitor (SNRI) and an artificial sensory experience. The SNRI can include milnacipran, specifically, and in some embodiments, the SNRI can include other SNRIs commonly prescribed to treat fibromyalgia (e.g., duloxetine). Similar to those combinatorial systems described above, the artificial sensory experience combined with the SNRI (preferably milnacipran) can include any of 2D/3D/4D artificial sensory experiences, holography, augmented reality, virtual reality, and/or mixed reality. In an exemplary embodiment, the artificial sensory experience is VRNT or virtual reality distraction therapy.
In some embodiments, the combinatorial treatment systems and methods for treating/mitigating pain associated with fibromyalgia can have similar results to those illustrated and described with respect to FIGS. 5A, 5B, 5C, 6A, and 6B.

[2] = system: benzodiazepine binding sites; settings: cited from earlier work
α1 receptors = settings: cited from earlier work
pain [3] = assay: Combinatorial therapy of opioid analgesic and VRNT: patient's amount of pain over time (FIGS. 5A-5C); type: in vivo; settings: opioid analgesic in combination with VRNT, potential patient responses
Text: FIGS. 5A-5C illustrate exemplary graphs of potential effects of combinatorial therapeutic systems/methods employing tapentadol and VRNT on a patient's amount of pain over time; and
The synergistic effects of the disclosed combinatorial therapeutic systems/methods can be exemplified in a plurality of responses. For example, FIGS. 5A-5C illustrate a combinatorial therapy using tapentadol (as the opioid analgesic) and VRNT (as the artificial sensory experience) with different potential patient responses. As many, if not all, patients may experience the synergistic benefits afforded by the disclosed combinatorial therapeutic systems/methods as an average benefit, the individual-specific responses may be different.

pain [4] = settings: reported; cited from earlier work
[5] = relative to tramadol and morphine; cited from earlier work

H1 receptors, sequence (P35367 whole entry): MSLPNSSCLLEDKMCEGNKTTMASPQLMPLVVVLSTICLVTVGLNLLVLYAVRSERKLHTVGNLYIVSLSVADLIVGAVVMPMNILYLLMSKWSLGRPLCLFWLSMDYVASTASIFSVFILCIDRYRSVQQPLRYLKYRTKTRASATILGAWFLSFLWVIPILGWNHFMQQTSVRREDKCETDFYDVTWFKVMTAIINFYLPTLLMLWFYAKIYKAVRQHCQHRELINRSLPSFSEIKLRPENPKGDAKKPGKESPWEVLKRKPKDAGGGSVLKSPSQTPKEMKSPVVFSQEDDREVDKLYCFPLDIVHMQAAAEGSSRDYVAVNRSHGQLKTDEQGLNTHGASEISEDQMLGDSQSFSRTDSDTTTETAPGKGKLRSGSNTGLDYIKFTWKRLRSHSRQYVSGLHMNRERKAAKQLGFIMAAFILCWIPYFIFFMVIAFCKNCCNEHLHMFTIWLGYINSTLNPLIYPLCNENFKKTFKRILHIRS
D1 receptors, sequence (P21728 whole entry): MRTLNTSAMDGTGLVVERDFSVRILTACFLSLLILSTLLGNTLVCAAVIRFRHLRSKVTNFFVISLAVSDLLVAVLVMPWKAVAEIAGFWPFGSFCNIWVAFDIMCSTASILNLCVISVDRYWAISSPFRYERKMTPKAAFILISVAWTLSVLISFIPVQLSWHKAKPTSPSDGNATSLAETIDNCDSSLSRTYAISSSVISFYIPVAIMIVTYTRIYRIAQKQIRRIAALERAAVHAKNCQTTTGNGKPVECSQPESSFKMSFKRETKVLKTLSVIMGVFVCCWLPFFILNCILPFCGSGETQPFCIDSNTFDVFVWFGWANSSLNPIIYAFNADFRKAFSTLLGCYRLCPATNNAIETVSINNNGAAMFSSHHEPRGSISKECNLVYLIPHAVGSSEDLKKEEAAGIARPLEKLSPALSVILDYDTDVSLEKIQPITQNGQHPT
D2 receptors, sequence (P14416 whole entry): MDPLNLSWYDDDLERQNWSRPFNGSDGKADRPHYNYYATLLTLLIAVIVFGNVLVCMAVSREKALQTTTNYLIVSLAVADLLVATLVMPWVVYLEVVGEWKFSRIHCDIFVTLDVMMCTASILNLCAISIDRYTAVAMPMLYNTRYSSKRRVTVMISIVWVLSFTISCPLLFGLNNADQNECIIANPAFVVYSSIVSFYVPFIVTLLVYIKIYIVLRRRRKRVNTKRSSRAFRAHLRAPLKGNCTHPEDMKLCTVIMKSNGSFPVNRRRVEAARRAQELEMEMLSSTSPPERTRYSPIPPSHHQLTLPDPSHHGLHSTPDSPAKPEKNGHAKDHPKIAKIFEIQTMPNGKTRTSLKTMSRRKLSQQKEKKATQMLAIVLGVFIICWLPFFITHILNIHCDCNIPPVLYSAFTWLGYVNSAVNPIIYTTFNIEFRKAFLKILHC

| Compound | actions on D2 receptors (D2 receptors) | actions on H1 receptors (H1 receptors) | actions on D1 receptors (D1 receptors) | actions on mACh receptors (mACh receptors) | actions on opioid binding sites (opioid binding sites) | pain over time [1] | actions on benzodiazepine binding sites [2] | actions on α1 receptors (α1 receptors) | patient's amount of pain over time (pain [3]) | pain reduction / efficacy versus placebo (pain [4]) | potency [5] |
| --- | --- | --- | --- | --- | --- | --- | --- | --- | --- | --- | --- |
| CCN(CC)C(=O)C1(c2ccccc2)CC1CN (centres unmarked) [milnacipran] | no significant actions | no significant actions | no significant actions | no significant actions | no significant actions | decrease in pain over time | no significant actions | no significant actions |  |  |  |
| CC[C@@H](c1cccc(O)c1)[C@@H](C)CN(C)C [tapentadol] |  |  |  |  |  |  |  |  | constant or linear decrease in pain over time; also recorded: cyclical decrease and increase in pain levels over time with an overall decreasing pain level; also recorded: step-wise reduction in pain levels | limited efficacy beyond placebo; also recorded: only marginal incremental pain reduction versus placebo | somewhere between tramadol, another synthetic opioid, and morphine |
